Measured values: US20180325889A1, “IMMUNOREGULATORY AGENTS” (FLEXUS BIOSCIENCES, INC., priority 2014, published 2018)

Target: T1, human IDO1/HEK293 cells (Homo sapiens, UniProt P14902)
T1 construct: expressed in transfected cells
Assay: HEK Human IDO-1 cell-based IDO inhibition assay (kynurenine production)
Conditions: HEK293 cells stably expressing human IDO1, 20 hours incubation, absorbance at 490 nm; read-out: HEK Human IDO-1 Bio Activity (IDO IC50)
Experimental: They were cultured in medium (DMEM with 10% FBS) containing 1 mg/ml G418 for two weeks.
The human IDO1/HEK293 cells were seeded at 10,000 cells per 50 μL per well with RPMI/phenol red free media contains 10% FBS in a 384-well black wall clear bottom tissue culture plate (Matrix Technologies LLC) 100 nL of certain concentration of compound was then added to each well using ECHO liquid handling systems. The cells were incubated for 20 hours in 37° C. incubator with 5% CO2.
The compound treatments were stopped by adding trichloroacetic acid (Sigma-Aldrich) to a final concentration at 0.2%. The cell plate was further incubated at 50° C. for 30 minute. The equal volume supernatant (20 μL) and 0.2% (w/v) Ehrlich reagent (4-dimethylaminobenzaldehyde, Sigma-Aldrich) in glacial acetic acid were mixed in a new clear bottom 384-well plate. This plate was then incubated at room temperature for 30 minute. The absorbance at 490 nm was measured on Envision plate reader.

T1 sequence (P14902 whole entry): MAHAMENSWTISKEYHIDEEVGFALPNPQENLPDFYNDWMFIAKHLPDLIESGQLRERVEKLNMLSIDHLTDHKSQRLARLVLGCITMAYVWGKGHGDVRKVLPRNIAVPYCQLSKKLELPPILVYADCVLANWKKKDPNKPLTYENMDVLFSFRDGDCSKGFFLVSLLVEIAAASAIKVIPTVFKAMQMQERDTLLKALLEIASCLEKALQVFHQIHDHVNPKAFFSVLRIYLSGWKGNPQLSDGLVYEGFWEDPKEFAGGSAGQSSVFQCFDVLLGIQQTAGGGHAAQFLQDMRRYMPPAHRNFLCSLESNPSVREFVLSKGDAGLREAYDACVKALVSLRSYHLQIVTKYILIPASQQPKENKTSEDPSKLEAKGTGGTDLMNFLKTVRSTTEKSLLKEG

SMILES | IC50 [nM]
C[C@@H](NC(=O)c1ccc(-c2ccccc2)cc1)[C@H]1CC[C@@H](c2ccnc3ccc(F)cc32)CC1 [Example 70, N—((R)-1-((1s,4S)-4-(6-fluoroquinolin-4-yl)cyclohexyl)ethyl)-[1,1′-biphenyl]-4-carboxamide] | < 50
CCC(NC(=O)c1ccc(Cl)cc1)[C@H]1CC[C@H](Oc2ccnc3c(C(F)(F)F)cccc23)CC1 (stereo partly drawn) [Example 72, 4-Chloro-N-(1-((trans)-4-((8-(trifluoromethyl)quinolin-4-yl)oxy)cyclohexyl)propyl)benzamide] | < 2000
O=C(Nc1ccc(Cl)cc1)[C@H]1CC[C@H](c2ccnc3ccc(F)cc32)CC1 [Example 75, (trans)-N-(4-Chlorophenyl)-4-(6-fluoroquinolin-4-yl)cyclohexanecarboxamide] | < 250
O=C(Nc1ccc(Cl)cc1)[C@H]1CC[C@@H](c2ccnc3ccc(F)cc32)CC1 [Example 76, (cis)-N-(4-Chlorophenyl)-4-(6-fluoroquinolin-4-yl)cyclohexanecarboxamide] | < 2000
CCC(NC(=O)c1ccc(Cl)cc1)[C@H]1CC[C@@H](Oc2ccnc3ccccc23)CC1 (stereo partly drawn) [Example 80, 4-Chloro-N-(1-(cis-4-(quinolin-4-yloxy)cyclohexyl)propyl)benzamide] | < 2000
O=C(Nc1ccc(-c2ccccc2)cc1)N1CCN(c2ccnc3ccc(F)cc23)CC1 [Example 84, N-([1,1′-Biphenyl]-4-yl)-4-(6-fluoroquinolin-4-yl)piperazine-1-carboxamide] | < 2000
Cc1ccc(C(=O)NCC2CCN(c3ccnc4ccc(F)cc34)CC2)cc1 [Example 86, N-((1-(6-Fluoroquinolin-4-yl)piperidin-4-yl)methyl)-4-methylbenzamide] | < 250
O=C(NCC1CCN(c2ccnc3ccc(F)cc23)CC1)c1ccc(Cl)c(Cl)c1 [Example 87, 3,4-Dichloro-N-((1-(6-fluoroquinolin-4-yl)piperidin-4-yl)methyl)benzamide] | < 250
O=C(NCC1CCN(c2ccnc3ccc(F)cc23)CC1)c1ccc(Cl)cc1 [Example 88] | < 2000
O=C(NCC1CCN(c2ccnc3ccc(F)cc23)CC1)c1ccc(F)cc1 [Example 89] | < 250
O=C(NCC1CCN(c2ccnc3ccc(F)cc23)CC1)c1cccc(Cl)c1 [Example 90] | < 2000
Cc1ccc(NC(=O)NC2CCN(c3ccnc4ccc(F)cc34)CC2)cc1 [Example 91, 1-(1-(6-Fluoroquinolin-4-yl)piperidin-4-yl)-3-(p-tolyl)urea] | < 250
O=C(Nc1ccc(Cl)cc1F)NC1CCN(c2ccnc3ccc(F)cc23)CC1 [Example 92, 1-(4-Chloro-2-fluorophenyl)-3-(1-(6-fluoroquinolin-4-yl)piperidin-4-yl)urea] | < 2000
O=C(Nc1ccc(F)cc1)NC1CCN(c2ccnc3ccc(F)cc23)CC1 [Example 93, 1-(4-Fluorophenyl)-3-(1-(6-fluoroquinolin-4-yl)piperidin-4-yl)urea] | < 2000
COc1ccc(CN[C@H]2CC[C@H](c3ccccc3)CC2)cc1 [Example 97, trans-N-(4-Methoxybenzyl)-4-phenylcyclohexanamine] | < 250
O=C(Nc1ccc(Cl)cc1)N[C@H]1CC[C@H](c2ccnc3ccc(F)cc32)CC1 [Example 119, 1-(4-Chlorophenyl)-3-(trans-4-(6-fluoroquinolin-4-yl)cyclohexyl)urea] | < 50
O=C(Nc1ccc(Cl)cc1F)N[C@H]1CC[C@H](c2ccnc3ccc(F)cc32)CC1 [Example 120, 1-(4-chloro-2-fluorophenyl)-3-(trans-4-(6-fluoroquinolin-4-yl)cyclohexyl)urea] | < 50
O=C(Nc1ccc(F)cc1F)N[C@H]1CC[C@H](c2ccnc3ccc(F)cc32)CC1 [Example 122, 1-(2,4-difluorophenyl)-3-(trans-4-(6-fluoroquinolin-4-yl)cyclohexyl)urea] | < 250
O=C(Nc1ccc(F)c(F)c1)N[C@H]1CC[C@H](c2ccnc3ccc(F)cc32)CC1 [Example 123, 1-(3,4-difluorophenyl)-3-(trans-4-(6-fluoroquinolin-4-yl)cyclohexyl)urea] | < 250
O=C(Nc1ccc(F)cc1)N[C@H]1CC[C@H](c2ccnc3ccc(F)cc32)CC1 [Example 124, 1-(4-fluorophenyl)-3-(trans-4-(6-fluoroquinolin-4-yl)cyclohexyl)urea] | < 50
O=C(Nc1ccc(Cl)cc1)N[C@H]1CC[C@@H](c2ccnc3ccc(F)cc32)CC1 [Example 125, 1-(4-Chlorophenyl)-3-(cis-4-(6-fluoroquinolin-4-yl)cyclohexyl)urea] | < 250

SMILES | IC50 [nM]
Fc1ccc2nccc([C@H]3CC[C@H](NCc4ccccc4)CC3)c2c1 [Example 130, trans-N-Benzyl-4-(6-fluoroquinolin-4-yl)cyclohexanamine] | < 250
Fc1ccc2nccc([C@H]3CC[C@@H](NCc4ccccc4)CC3)c2c1 [Example 131, cis-N-Benzyl-4-(6-fluoroquinolin-4-yl)cyclohexanamine] | < 250
O=C(O)Cc1ccc(CN[C@H]2CC[C@H](c3ccnc4ccc(F)cc43)CC2)cc1 [Example 139, 2-(4-(((trans-4-(6-Fluoroquinolin-4-yl)cyclohexyl)amino)methyl)phenyl)acetic acid] | < 2000
O=C(Cc1ccc(Cl)cc1)N[C@H]1CC[C@H](c2ccnc3ccc(F)cc32)CC1 [Example 144, 2-(4-Chlorophenyl)-N-(trans-4-(6-fluoroquinolin-4-yl)cyclohexyl)acetamide] | < 2000
CC(C(=O)N[C@H]1CC[C@H](c2ccnc3ccc(F)cc32)CC1)c1ccc(Cl)cc1 (stereo partly drawn) [Example 145, 2-(4-chlorophenyl)-N-(trans-4-(6-fluoroquinolin-4-yl)cyclohexyl)propanamide] | < 2000
O=C(N[C@H]1CC[C@H](c2ccnc3ccc(F)cc32)CC1)c1ccc(Cl)cc1 [Example 146, 4-chloro-N-(trans-4-(6-fluoroquinolin-4-yl)cyclohexyl)benzamide] | < 2000
O=C(Cc1ccc(Cl)cc1)N[C@H]1CC[C@@H](c2ccnc3ccc(F)cc32)CC1 [Example 147, 2-(4-chlorophenyl)-N-(cis-4-(6-fluoroquinolin-4-yl)cyclohexyl)acetamide] | < 2000
CC(C(=O)N[C@H]1CC[C@@H](c2ccnc3ccc(F)cc32)CC1)c1ccc(Cl)cc1 (stereo partly drawn) [Example 148, 2-(4-chlorophenyl)-N-(cis-4-(6-fluoroquinolin-4-yl)cyclohexyl)propanamide] | < 2000
O=C(N[C@H]1CC[C@@H](c2ccnc3ccc(F)cc32)CC1)c1ccc(Cl)cc1 [Example 149, 4-chloro-N-(cis-4-(6-fluoroquinolin-4-yl)cyclohexyl)benzamide] | < 250
Cc1cc(C2CCC(C(C)NC(=O)c3ccc(Cl)cc3)CC2)ccn1 (centres unmarked) [Example 157a, 4-Chloro-N-(1-(4-(2-methylpyridin-4-yl)cyclohexyl)ethyl)benzamide] | < 250
Cc1c(C2CCC(C(C)NC(=O)c3ccc(Cl)cc3)CC2)ccnc1F (centres unmarked) [Example 158a, 4-chloro-N-(1-(4-(2-fluoro-3-methylpyridin-4-yl)cyclohexyl)ethyl)benzamide] | < 50
Cc1nccc(C2CCC(C(C)NC(=O)c3ccc(Cl)cc3)CC2)c1C (centres unmarked) [Example 159a, 4-chloro-N-(1-(4-(2,3-dimcthylpyridin-4-yl)cyclohexyl)ethyl)benzamide] | < 50
Cc1cnccc1C1CCC(C(C)NC(=O)c2ccc(Cl)cc2)CC1 (centres unmarked) [Example 160a, 4-chloro-N-(1-(4-(3-methylpyridin-4-yl)cyclohexyl)ethyl)benzamide] | < 50
CCOc1ccc(C(=O)N[C@H](C)[C@H]2CC[C@@H](c3ccnc4ccc(F)cc43)CC2)nc1 [Example 163, 5-Ethoxy-N—((R)-1-(cis-4-(6-fluoroquinolin-4-yl)cyclohexyl)ethyl)picolinamide] | < 50
C[C@@H](NC(=O)c1ccc(C#N)cc1)[C@H]1CC[C@@H](c2ccnc3ccc(F)cc32)CC1 [Example 176, 4-cyano-N-((R)-1-(cis-4-(6-fluoroquinolin-4-yl)cyclohexyl)ethyl)benzamide] | < 50
COc1ccc(-c2ccc(C(=O)N[C@H](C)[C@H]3CC[C@@H](c4ccnc5ccc(F)cc54)CC3)nc2)cc1F [Example 178, 5-(3-fluoro-4-methoxyphenyl)-N-((R)-1-(cis-4-(6-fluoroquinolin-4-yl)cyclohexyl)ethyl)picolinamide] | < 250
C[C@@H](NC(=O)c1ccc(-n2cccc2)cc1)[C@H]1CC[C@@H](c2ccnc3ccc(F)cc32)CC1 [Example 195, N-((R)-1-(cis-4-(6-fluoroquinolin-4-yl)cyclohexyl)ethyl)-4-(1H-pyrrol-1-yl)benzamide] | < 50
C[C@@H](NC(=O)c1ccc(-n2ccnc2)cc1)[C@H]1CC[C@@H](c2ccnc3ccc(F)cc32)CC1 [Example 196, N-((R)-1-(cis-4-(6-fluoroquinolin-4-yl)cyclohexyl)ethyl)-4-(1H-imidazol-1-yl)benzamide] | < 50
CC(NC(=O)c1ccc(Cl)cc1)C1CCC(c2ccnc3ccnn23)CC1 (centres unmarked) [Example 197, 4-chloro-N-(1-(4-(pyrazolo[1,5-a]pyrimidin-7-yl)cyclohexyl)ethyl)benzamide] | < 250
C=CC[C@@H](NC(=O)c1ccc(Cl)cc1)[C@H]1CC[C@@H](c2ccnc3ccc(F)cc32)CC1 [Example 198, 4-chloro-N—((R)-1-((1s, 4S)-4-(6-fluoroquinolin-4-yl)cyclohexyl)but-3-en-1-yl) benzamide] | < 50
